{"source": "ChEMBL document CHEMBL5550185", "about": "“Targeting hTERT Promoter G-Quadruplex DNA Structures with Small-Molecule Ligand to Downregulate hTERT Expression for Triple-Negative Breast Cancer Therapy” (J Med Chem, 2024)", "key": {"[1]": {"test": "Cytotoxicity against human HK-2 cells assessed as inhibition of cell growth incubated for 48 hrs by MTT assay", "type": "toxicity, cell-based"}, "[2]": {"test": "Toxicity in female Balb/c nude mouse xenografted with human MDA-MB-231 cells assessed as change in creatinine level at 2 to 5 mg/kg, iv administered via tail vein every 2 days for 16 days", "type": "organism-based", "details": "in vivo, 384 h, dose 2-5 mg/kg, time 16 day"}, "[3]": {"test": "Toxicity in female Balb/c nude mouse xenografted with human MDA-MB-231 cells assessed as pathological changes in kidney at 2 to 5 mg/kg, iv administered via tail vein every 2 days for 16 days by H and E staining based analysis", "type": "organism-based", "details": "in vivo, 384 h, dose 2-5 mg/kg, time 16 day"}, "HepG2": {"tested_on": "HepG2", "test": "Cytotoxicity against telomerase-positive human HepG2 cells assessed as inhibition of cell growth incubated for 48 hrs by MTT assay", "type": "functional, cell-based", "details": "HepG2, 48 h"}, "[4]": {"test": "Upregulation of PLK2 gene expression in human MDA-MB-231 cells assessed as fold change at 1 uM measured after 48 hrs by RNA-seq analysis relative to control", "type": "functional"}, "MDA-MB-231 [5]": {"tested_on": "MDA-MB-231", "test": "Antitumor activity against human MDA-MB-231 cells xenografted in female Balb/c mouse assessed as reduction in tumor weight at 2 mg/kg, iv administered via tail vein every 2 days for 16 days relative to control", "type": "functional", "set-up": "scale not given: the % may be the effect or the level left", "details": "time 16 day"}, "MDA-MB-231 [6]": {"tested_on": "MDA-MB-231", "test": "Antitumor activity against human MDA-MB-231 cells xenografted in female Balb/c mouse assessed as inhibition of tumor cell proliferation at 5 mg/kg, iv administered via tail vein every 2 days for 16 days by Ki67 staining based assay", "type": "functional, organism-based", "details": "time 16.0 day"}, "[7]": {"test": "Upregulation of CCNB2 gene expression in human MDA-MB-231 cells assessed as fold change at 1 uM measured after 48 hrs by RNA-seq analysis relative to control", "type": "functional"}, "[8]": {"test": "Toxicity in female Balb/c nude mouse xenografted with human MDA-MB-231 cells assessed as change in AST level at 2 to 5 mg/kg, iv administered via tail vein every 2 days for 16 days", "type": "organism-based", "details": "in vivo, 384 h, dose 2-5 mg/kg, time 16 day"}, "Quadruplex DNA [9]": {"tested_on": "Quadruplex DNA", "test": "Binding affinity to human TERT G4 DNA assessed as adduct formation by measuring appearance of new peak at 5 uM by ultraviolet spectrophotometric titration method", "type": "nucleic-acid assay"}, "[10]": {"test": "Upregulation of MAPK13 gene expression in human MDA-MB-231 cells assessed as fold change at 1 uM measured after 48 hrs by RNA-seq analysis relative to control", "type": "functional"}, "Quadruplex DNA [11]": {"target": "Quadruplex DNA", "test": "Binding affinity to c-MYC Pu27 G4 DNA (unknown origin) assessed as dissociation constant by ITC analysis", "type": "nucleic-acid assay"}, "DNA [12]": {"tested_on": "DNA", "test": "Binding affinity to Ds26 duplex DNA (unknown origin) assessed as thermal stability by measuring change in melting temperature at 400 uM […]", "type": "nucleic-acid assay"}, "MDA-MB-231 [13]": {"tested_on": "MDA-MB-231", "test": "Induction of telomere dysfunction in human MDA-MB-231 cells assessed as telomer length shortening effect at 0.2 uM measured after 10 days by qRT-PCR analysis", "type": "functional, cell-based", "details": "time 10.0 day"}, "[14]": {"test": "Toxicity in female Balb/c nude mouse xenografted with human MDA-MB-231 cells assessed as signs of discomfort at 2 to 5 mg/kg, iv administered via tail vein every 2 days for 16 days", "type": "organism-based", "details": "in vivo, 384 h, dose 2-5 mg/kg, time 16 day"}, "[15]": {"test": "Upregulation of ZFP36L1 gene expression in human MDA-MB-231 cells assessed as fold change at 1 uM measured after 48 hrs by RNA-seq analysis relative to control", "type": "functional"}, "[16]": {"test": "Upregulation of HLA-F gene expression in human MDA-MB-231 cells assessed as fold change at 1 uM measured after 48 hrs by RNA-seq analysis relative to control", "type": "functional"}, "MDA-MB-231 [17]": {"tested_on": "MDA-MB-231", "test": "Downregulation of p62 protein expression in human MDA-MB-231 cells at 0 to 1.5 uM measured after 48 hrs by Western blot analysis", "type": "functional, cell-based", "details": "dose 0-1.5 µM"}, "U2OS": {"tested_on": "U2OS", "test": "Cytotoxicity against alternative lengthening of telomere-positive human U2OS cells assessed as inhibition of cell growth incubated for 48 hrs by MTT assay", "type": "functional, cell-based"}, "Quadruplex DNA [18]": {"tested_on": "Quadruplex DNA", "test": "Binding affinity to VEGF G4 DNA (unknown origin) assessed as thermal stability by measuring change in melting temperature at 400 uM […]", "type": "nucleic-acid assay"}, "MDA-MB-231 [19]": {"tested_on": "MDA-MB-231", "test": "Antitumor activity against human MDA-MB-231 cells xenografted in female Balb/c mouse assessed as reduction in tumor volume at 2 mg/kg, iv administered via tail vein every 2 days for 16 days relative to control", "type": "functional", "set-up": "scale not given: the % may be the effect or the level left", "details": "time 16 day"}, "[20]": {"test": "Toxicity in female Balb/c nude mouse xenografted with human MDA-MB-231 cells assessed as change in mean corpuscular volume at 2 to 5 mg/kg, iv administered via tail vein every 2 days for 16 days", "type": "organism-based", "details": "in vivo, 384 h, dose 2-5 mg/kg, time 16 day"}, "MDA-MB-231 [21]": {"tested_on": "MDA-MB-231", "test": "Induction of mitochondrial dysfunction in human MDA-MB-231 cells assessed as downregulation of mitochondrial respiratory complex I-NDUFB8 expression incubated for 48 hrs by Western blot analysis", "type": "functional, cell-based", "details": "dose 0-1.5 µM"}, "MDA-MB-231 [22]": {"tested_on": "MDA-MB-231", "test": "Inhibition of hTERT expression in human MDA-MB-231 cells assessed as reduction in pink foci in nucleus at 0.5 uM incubated for 48 hrs in presence of TBHP at 200 uM by immunofluorescence analysis", "type": "functional, cell-based"}, "Quadruplex DNA [23]": {"tested_on": "Quadruplex DNA", "test": "Binding affinity to hTERT G4 DNA assessed as thermal stability by measuring change in melting temperature at 400 uM […]", "type": "nucleic-acid assay", "details": "Homo sapiens"}, "Quadruplex DNA [24]": {"target": "Quadruplex DNA", "test": "Binding affinity to Telo21 G4 DNA (unknown origin) assessed as dissociation constant by ITC analysis", "type": "nucleic-acid assay"}, "DNA [25]": {"tested_on": "DNA", "test": "Binding affinity to Ds26 duplex DNA (unknown origin) assessed as change in gibbs free energy at 400 uM by ITC analysis", "type": "nucleic-acid assay"}, "MDA-MB-231 [26]": {"tested_on": "MDA-MB-231", "test": "Cytotoxicity against human MDA-MB-231 cells assessed as inhibition of cell growth incubated for 48 hrs in presence of TBHP by MTT assay", "type": "functional, cell-based", "details": "MDA-MB-231, 48 h"}, "[27]": {"test": "Upregulation of KLF2 gene expression in human MDA-MB-231 cells assessed as fold change at 1 uM measured after 48 hrs by RNA-seq analysis relative to control", "type": "functional"}, "MDA-MB-231 [28]": {"tested_on": "MDA-MB-231", "test": "Downregulation of ND2 gene expression in human MDA-MB-231 cells at 1 uM measured after 48 hrs by RNA-seq analysis", "type": "functional, cell-based"}, "DNA [29]": {"tested_on": "DNA", "test": "Binding affinity to DNA in telomerase-positive live human MDA-MB-231 cells at 5 uM preincubated for 10 mins followed by washout and RNase A addition measured after 2 hrs by Hoechst 33342 staining based confocal microscopic analysis", "type": "cell-based"}, "[30]": {"test": "Upregulation of TGFBR2 gene expression in human MDA-MB-231 cells assessed as fold change at 1 uM measured after 48 hrs by RNA-seq analysis relative to control", "type": "functional"}, "PC-3": {"tested_on": "PC-3", "test": "Cytotoxicity against telomerase-positive human PC-3 cells assessed as inhibition of cell growth incubated for 48 hrs by MTT assay", "type": "functional, cell-based", "details": "PC-3, 48 h"}, "Quadruplex DNA [31]": {"tested_on": "Quadruplex DNA", "test": "Binding affinity to G4 DNA in telomerase-positive live human MDA-MB-231 cells assessed as colocalization of BG4 and compound at 5 uM incubated for 2 hrs by immunofluorescence assay", "type": "cell-based"}, "[32]": {"test": "Selectivity ratio of binding affinity to human TERT G4 DNA to binding affinity to Ds26 duplex DNA (unknown origin)"}, "[33]": {"test": "Selectivity ratio of binding affinity to human TERT G4 DNA to binding affinity to Telo21 G4 DNA (unknown origin)"}}, "note": "Active and inactive are the calls of the source. The calls are words filed in the database; no cut-off is given here.", "data": [{"smiles": "C[n+]1c(/C=C/c2c[nH]c3ccccc23)cc(/C=C2\\Sc3ccccc3N2CCCN2CCC(C(F)(F)F)CC2)c2ccccc21.[I-]", "values": [{"measurement": "IC50 at 48 h", "setting": "[1]", "value": 9.4, "unit": "µM"}, {"measurement": "Activity", "setting": "[2]", "value": "Non-Toxic"}, {"measurement": "Activity", "setting": "[3]", "value": "Non-Toxic"}, {"measurement": "IC50", "setting": "HepG2", "value": 2.9, "unit": "µM"}, {"measurement": "fold change (FC)", "setting": "[4]", "value": ">2"}, {"measurement": "Activity", "setting": "MDA-MB-231 [5]", "value": 48.7, "unit": "%"}, {"measurement": "Activity", "setting": "MDA-MB-231 [6]", "value": "Active"}, {"measurement": "fold change (FC)", "setting": "[7]", "value": ">2"}, {"measurement": "Activity", "setting": "[8]", "value": "Non-Toxic"}, {"measurement": "Activity", "setting": "Quadruplex DNA [9]", "value": "Active"}, {"measurement": "fold change (FC)", "setting": "[10]", "value": ">2"}, {"measurement": "Kd", "setting": "Quadruplex DNA [11]", "value": 14.7, "unit": "µM"}, {"measurement": "ΔTm", "setting": "DNA [12]", "value": 1.01, "unit": "°C"}, {"measurement": "Activity", "setting": "MDA-MB-231 [13]", "value": "Active"}, {"measurement": "Activity", "setting": "[14]", "value": "Non-Toxic"}, {"measurement": "fold change (FC)", "setting": "[15]", "value": ">2"}, {"measurement": "fold change (FC)", "setting": "[16]", "value": ">2"}, {"measurement": "Activity", "setting": "MDA-MB-231 [17]", "value": "Active"}, {"measurement": "IC50", "setting": "U2OS", "value": 3.9, "unit": "µM"}, {"measurement": "ΔTm", "setting": "Quadruplex DNA [18]", "value": 0.72, "unit": "°C"}, {"measurement": "Activity", "setting": "MDA-MB-231 [19]", "value": 52.6, "unit": "%"}, {"measurement": "Activity", "setting": "[20]", "value": "Non-Toxic"}, {"measurement": "Activity", "setting": "MDA-MB-231 [21]", "value": "Dose-Dependent Effect"}, {"measurement": "inhibition", "setting": "MDA-MB-231 [22]", "value": "Active"}, {"measurement": "ΔTm", "setting": "Quadruplex DNA [23]", "value": 11.7, "unit": "°C"}, {"measurement": "Kd", "setting": "Quadruplex DNA [24]", "value": 3.28, "unit": "µM"}, {"measurement": "deltaG", "setting": "DNA [25]", "value": -6.45, "unit": "kcal/mol"}, {"measurement": "IC50", "setting": "MDA-MB-231 [26]", "value": 0.67, "unit": "µM"}, {"measurement": "fold change (FC)", "setting": "[27]", "value": ">2"}, {"measurement": "Activity", "setting": "MDA-MB-231 [28]", "value": "Active"}, {"measurement": "Activity", "setting": "DNA [29]", "value": "Active"}, {"measurement": "fold change (FC)", "setting": "[30]", "value": ">2"}, {"measurement": "IC50", "setting": "PC-3", "value": 2.5, "unit": "µM"}, {"measurement": "Activity", "setting": "Quadruplex DNA [31]", "value": "Active"}, {"measurement": "Selectivity ratio", "setting": "[32]", "value": 3}, {"measurement": "Selectivity ratio", "setting": "[33]", "value": 2}]}]}
